Consider three molecules from PMC8350192 (Heliyon, 2021).

The target in experiment [1] is T1, Porcine Pancreas Lipase (PPL) (Sus scrofa, UniProt P00591).
T1 sequence (P00591 1-450): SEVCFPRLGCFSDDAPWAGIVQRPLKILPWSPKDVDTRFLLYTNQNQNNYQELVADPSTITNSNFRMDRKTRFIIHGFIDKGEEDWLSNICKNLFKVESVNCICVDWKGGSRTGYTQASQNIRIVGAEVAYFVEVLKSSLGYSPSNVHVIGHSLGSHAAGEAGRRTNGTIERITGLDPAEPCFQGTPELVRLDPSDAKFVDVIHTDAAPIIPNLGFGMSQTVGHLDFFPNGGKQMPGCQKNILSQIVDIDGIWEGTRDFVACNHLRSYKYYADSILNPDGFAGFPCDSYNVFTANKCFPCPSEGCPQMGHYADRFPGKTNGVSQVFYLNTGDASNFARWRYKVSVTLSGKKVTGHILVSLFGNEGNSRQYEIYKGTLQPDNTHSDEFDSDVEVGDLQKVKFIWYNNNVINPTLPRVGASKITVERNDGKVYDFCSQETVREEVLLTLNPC
The experiment can be described thus: Inhibition of lipase activity assay in vitro. The format is biochemical. Particulars: for inhibition at 6.25 µg/mL / inhibition at 12.5 µg/mL / inhibition at 25 µg/mL / inhibition at 50 µg/mL / inhibition at 100 µg/mL / inhibition at 200 µg/mL: read-out: Inhibition Percentage (%).

Experiment [2] has as its system gastrointestinal and pancreatic lipases. As to conditions: ref Guercioloni, 1997; Bellinger and Peikin, 2002; Othman et al., 2021; cited from earlier work.

For orientation: IC50 means the concentration needed to halve the response being measured. A higher IC50 goes with weaker potency in that assay. Broadly, the inhibition is the relative decrease from the control value, in per cent. `Cn1c(=O)c2c(ncn2C)n(C)c1=O` [Compound 2, caffeine]: in experiment [1], the IC50 is 80.3 µM, the inhibition at 6.25 µg/mL stood at 34%, the inhibition at 12.5 µg/mL was found to be 38.6% and the inhibition at 25 µg/mL was 64.6%. Further, in experiment [1], the inhibition at 50 µg/mL worked out at 76.2%, the inhibition at 100 µg/mL turned out to be 81.4% and the inhibition at 200 µg/mL turned out to be 83.9%.
With `CCCCCCCCCCC[C@@H](C[C@@H]1OC(=O)[C@H]1CCCCCC)OC(=O)[C@H](CC(C)C)NC=O` [Orlistat], in experiment [1], the inhibition at 6.25 µg/mL came to 50.6%, the inhibition at 12.5 µg/mL amounted to 52.4%, the inhibition at 25 µg/mL was 55.6% and the inhibition at 50 µg/mL is 77.3%. For the same molecule, in experiment [1], the inhibition at 100 µg/mL was 89.4% and the inhibition at 200 µg/mL was determined as 93.3%. The “prevention of absorption of dietary fat” value in experiment [2] is given as “approximately 30%”.
Consider `O=C(/C=C/c1ccc(O)c(O)c1)O[C@@H]1C[C@](O)(C(=O)O)C[C@@H](O)[C@H]1O` [Compound 3, Chlorogenic acid], for which, in experiment [1], the IC50 is 33.6 µM, the inhibition at 6.25 µg/mL was 29.4%, the inhibition at 12.5 µg/mL stood at 59.2% and the inhibition at 25 µg/mL amounted to 64.2%. For the same molecule, in experiment [1], the inhibition at 50 µg/mL came to 77.6%, the inhibition at 100 µg/mL stood at 86.7% and the inhibition at 200 µg/mL came out at 89.6%.
